Assay results reported in PMC11702666, “The anti-COVID-19 drug Paxlovid crosses biological barriers of the placenta and brain in rats” (npj Viruses, 2024).
Read-outs that look alike come from different tables or passages of the source.

Key:
in vivo = details: female, Sprague-Dawley, rat, iv, 15 mg/kg, nonpregnant female rats; for AUC(0-t): AUClast; for clearance: CL (clearance); for MRT: MRT (mean residence time); for half-life: t1/2 (elimination half-life)
[1] = oral; cited from earlier work
[2] = for nirmatrelvir concentration in dialysate sample: 60 min after nirmatrelvir 15 mg/kg i.v., representative sample
SARS-CoV-2 = test system: SARS-CoV-2; set-up: method as in PMID 34726479; details: 90% inhibition of viral replication, cited from earlier work
[3] = for Autosampler stability: 4°C for 6 hours; for Long-term stability: -20°C for 1 month; for Bench-top stability: room temperature for 6 hours; for Freeze‒thaw stability: three cycles
[4] = blood, nirmatrelvir 15 mg/kg i.v. plus ritonavir 7 mg/kg i.v.
[5] = brain, nirmatrelvir 15 mg/kg i.v. alone
[6] = brain, nirmatrelvir 15 mg/kg i.v. plus ritonavir 7 mg/kg i.v.
[7] = blood, nirmatrelvir 15 mg/kg i.v. alone
[8] = amniotic fluid dialysate, 5 ng/mL
[9] = amniotic fluid dialysate, 250 ng/mL
[10] = male rat blood dialysate, 5 ng/mL
[11] = male rat blood dialysate, 250 ng/mL
[12] = male rat brain dialysate, 5 ng/mL
[13] = male rat brain dialysate, 250 ng/mL
[14] = pregnant rat maternal blood dialysate, 5 ng/mL
[15] = pregnant rat maternal blood dialysate, 250 ng/mL

## CC(C)(C)[C@H](NC(=O)C(F)(F)F)C(=O)N1C[C@H]2[C@@H]([C@H]1C(=O)N[C@H](C#N)C[C@@H]1CCNC1=O)C2(C)C [Nirmatrelvir]
In vivo; [4]
  AUC(0-t): 69400 ng·h/mL
  clearance: 3.73 ± 0.29 mL/min/kg
  Cmax: 107000 ± 7400 ng/mL
  MRT: 79 min
  half-life: 25 ± 1 min
In vivo; [5]
  AUC(0-t): 3120 ng·h/mL
  Cmax: 2420 ± 460 ng/mL
  MRT: 93 min
  Tmax: 20 min
  half-life: 65 ± 7 min
In vivo; [6]
  AUC(0-t): 5280 ng·h/mL
  Cmax: 2330 ± 390 ng/mL
  MRT: 132 min
  Tmax: 36 min
  half-life: 64 ± 12 min
In vivo; [7]
  clearance: 16 ± 2.02 mL/min/kg
  Cmax: 35600 ± 2110 ng/mL
  MRT: 40 min
  half-life: 20 ± 2 min
[1]
  bioavailability: approximately 50%
[2]; amniotic fluid dialysate
  nirmatrelvir concentration in dialysate sample: 27.61 ng/mL
[2]; fetus dialysate
  nirmatrelvir concentration in dialysate sample: 37 ng/mL
[2]; maternal blood dialysate
  nirmatrelvir concentration in dialysate sample: 344.8 ng/mL
[2]; placenta dialysate
  nirmatrelvir concentration in dialysate sample: 95.13 ng/mL
[2]; pregnant rats, regular dose of Paxlovid
  nirmatrelvir level in conceptus (fetus, placenta, amniotic fluid) versus EC90: higher than the EC90
SARS-CoV-2
  unbound EC90: 0.0905 µg/mL
SARS-CoV-2; unbound
  EC90: 181 nM
[3]; [8]
  Autosampler stability: 101.84 ± 1.89%
  Long-term stability: 97.21 ± 0.39%
  Bench-top stability: 104.82 ± 1.50%
  Freeze‒thaw stability: 107.43 ± 5.37%
[3]; [9]
  Autosampler stability: 102.44 ± 2.35%
  Long-term stability: 93.43 ± 1.54%
  Bench-top stability: 98.60 ± 1.46%
  Freeze‒thaw stability: 99.39 ± 4.32%
[3]; fetus dialysate, 5 ng/mL
  Autosampler stability: 95.10 ± 0.47%
  Long-term stability: 95.20 ± 1.21%
  Bench-top stability: 102.37 ± 2.51%
  Freeze‒thaw stability: 107.56 ± 0.63%
[3]; fetus dialysate, 250 ng/mL
  Autosampler stability: 97.12 ± 1.94%
  Long-term stability: 91.79 ± 1.56%
  Bench-top stability: 101.02 ± 0.48%
  Freeze‒thaw stability: 98.02 ± 2.49%
[3]; [10]
  Autosampler stability: 95.56 ± 6.20%
  Long-term stability: 89.61 ± 1.00%
  Bench-top stability: 104.5 ± 1.73%
  Freeze‒thaw stability: 100.3 ± 3.40%
[3]; [11]
  Autosampler stability: 94.23 ± 4.18%
  Long-term stability: 88.54 ± 1.07%
  Bench-top stability: 97.60 ± 0.73%
  Freeze‒thaw stability: 88.57 ± 0.33%
[3]; [12]
  Autosampler stability: 92.51 ± 2.01%
  Long-term stability: 90.07 ± 2.77%
  Bench-top stability: 100.6 ± 0.37%
  Freeze‒thaw stability: 99.58 ± 1.02%
[3]; [13]
  Autosampler stability: 93.59 ± 4.41%
  Long-term stability: 87.36 ± 2.58%
  Bench-top stability: 95.79 ± 0.24%
  Freeze‒thaw stability: 92.01 ± 0.29%
[3]; placenta dialysate, 5 ng/mL
  Autosampler stability: 101.55 ± 6.56%
  Long-term stability: 97.38 ± 0.55%
  Bench-top stability: 100.37 ± 1.24%
  Freeze‒thaw stability: 101.85 ± 4.27%
[3]; placenta dialysate, 250 ng/mL
  Autosampler stability: 98.14 ± 3.84%
  Long-term stability: 88.97 ± 1.33%
  Bench-top stability: 98.87 ± 0.27%
  Freeze‒thaw stability: 100.83 ± 0.95%
[3]; [14]
  Autosampler stability: 102.98 ± 4.81%
  Long-term stability: 87.18 ± 0.87%
  Bench-top stability: 96.42 ± 2.53%
  Freeze‒thaw stability: 101.21 ± 2.66%
[3]; [15]
  Autosampler stability: 98.97 ± 4.80%
  Long-term stability: 87.65 ± 1.83%
  Bench-top stability: 98.68 ± 1.18%
  Freeze‒thaw stability: 105.98 ± 2.99%
